# Columns and labels:
# MM.1S cells [1] = experiment: Proliferation / growth rate inhibition assay; type: cell-based; details: for antiproliferative activity / toxicity, single agent: comparator inhibitors, single-agent treatment
# MM.1S cells [2] = experiment: Apoptosis; type: cell-based; details: PARP cleavage, caspase 3 cleavage, Annexin V/PI staining
# [3] = system: Bortezomib-resistant ANBL6 cells; experiment: Antiproliferative assay, Bortezomib-resistant ANBL6; type: cell-based; details: parental ANBL6 and Bortezomib-resistant ANBL6 cells
# JNK2 [4] = molecular target: T1, JNK2 (Homo sapiens, UniProt P45984); experiment: Pull-down competition assay with biotin-JNK-IN-7, JNK2; type: cell-based; details: MM.1S cells, 6 h; both JNK1 and JNK2
# Target sequence in this assay (P45984 whole entry): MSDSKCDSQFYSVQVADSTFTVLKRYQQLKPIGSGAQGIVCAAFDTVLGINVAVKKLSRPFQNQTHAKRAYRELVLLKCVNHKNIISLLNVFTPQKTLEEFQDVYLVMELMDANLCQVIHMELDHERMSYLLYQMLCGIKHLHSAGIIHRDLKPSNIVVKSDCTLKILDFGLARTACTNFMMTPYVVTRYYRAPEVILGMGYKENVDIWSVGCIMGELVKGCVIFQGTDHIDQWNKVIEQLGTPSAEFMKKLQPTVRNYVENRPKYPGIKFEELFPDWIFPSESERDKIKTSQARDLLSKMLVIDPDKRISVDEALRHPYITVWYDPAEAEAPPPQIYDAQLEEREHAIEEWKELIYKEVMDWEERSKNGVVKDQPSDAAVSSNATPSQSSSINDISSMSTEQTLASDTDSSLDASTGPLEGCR
# JNK2 [5] = molecular target: T1, JNK2; experiment: PhosphoSens kinetic assay; type: biochemical; details: JNK1 and JNK2
# Target sequence in this assay (P45984 whole entry): as above
# JNK2 [6] = molecular target: T1, JNK2; experiment: Z′-Lyte fixed time point kinase assay, JNK2; details: fixed time point biochemical kinase assay
# Target sequence in this assay (P45984 whole entry): as above
# [7] = system: panel of more than 400 kinases; experiment: Kinome-wide selectivity panel; details: strong binding to EGFR, CK1, DDR1, CDK7, Aurora A and B
# MDA-MB-231 cells = experiment: Vacuole formation; type: cell-based
# PIKFYVE = PIKFYVE (Homo sapiens, UniProt Q9Y2I7); experiment: PIKFYVE NanoBRET target engagement assay; type: cell-based; details: transfected HEK293T cells, 3 h
# Chain of PIKFYVE (Q9Y2I7 whole entry): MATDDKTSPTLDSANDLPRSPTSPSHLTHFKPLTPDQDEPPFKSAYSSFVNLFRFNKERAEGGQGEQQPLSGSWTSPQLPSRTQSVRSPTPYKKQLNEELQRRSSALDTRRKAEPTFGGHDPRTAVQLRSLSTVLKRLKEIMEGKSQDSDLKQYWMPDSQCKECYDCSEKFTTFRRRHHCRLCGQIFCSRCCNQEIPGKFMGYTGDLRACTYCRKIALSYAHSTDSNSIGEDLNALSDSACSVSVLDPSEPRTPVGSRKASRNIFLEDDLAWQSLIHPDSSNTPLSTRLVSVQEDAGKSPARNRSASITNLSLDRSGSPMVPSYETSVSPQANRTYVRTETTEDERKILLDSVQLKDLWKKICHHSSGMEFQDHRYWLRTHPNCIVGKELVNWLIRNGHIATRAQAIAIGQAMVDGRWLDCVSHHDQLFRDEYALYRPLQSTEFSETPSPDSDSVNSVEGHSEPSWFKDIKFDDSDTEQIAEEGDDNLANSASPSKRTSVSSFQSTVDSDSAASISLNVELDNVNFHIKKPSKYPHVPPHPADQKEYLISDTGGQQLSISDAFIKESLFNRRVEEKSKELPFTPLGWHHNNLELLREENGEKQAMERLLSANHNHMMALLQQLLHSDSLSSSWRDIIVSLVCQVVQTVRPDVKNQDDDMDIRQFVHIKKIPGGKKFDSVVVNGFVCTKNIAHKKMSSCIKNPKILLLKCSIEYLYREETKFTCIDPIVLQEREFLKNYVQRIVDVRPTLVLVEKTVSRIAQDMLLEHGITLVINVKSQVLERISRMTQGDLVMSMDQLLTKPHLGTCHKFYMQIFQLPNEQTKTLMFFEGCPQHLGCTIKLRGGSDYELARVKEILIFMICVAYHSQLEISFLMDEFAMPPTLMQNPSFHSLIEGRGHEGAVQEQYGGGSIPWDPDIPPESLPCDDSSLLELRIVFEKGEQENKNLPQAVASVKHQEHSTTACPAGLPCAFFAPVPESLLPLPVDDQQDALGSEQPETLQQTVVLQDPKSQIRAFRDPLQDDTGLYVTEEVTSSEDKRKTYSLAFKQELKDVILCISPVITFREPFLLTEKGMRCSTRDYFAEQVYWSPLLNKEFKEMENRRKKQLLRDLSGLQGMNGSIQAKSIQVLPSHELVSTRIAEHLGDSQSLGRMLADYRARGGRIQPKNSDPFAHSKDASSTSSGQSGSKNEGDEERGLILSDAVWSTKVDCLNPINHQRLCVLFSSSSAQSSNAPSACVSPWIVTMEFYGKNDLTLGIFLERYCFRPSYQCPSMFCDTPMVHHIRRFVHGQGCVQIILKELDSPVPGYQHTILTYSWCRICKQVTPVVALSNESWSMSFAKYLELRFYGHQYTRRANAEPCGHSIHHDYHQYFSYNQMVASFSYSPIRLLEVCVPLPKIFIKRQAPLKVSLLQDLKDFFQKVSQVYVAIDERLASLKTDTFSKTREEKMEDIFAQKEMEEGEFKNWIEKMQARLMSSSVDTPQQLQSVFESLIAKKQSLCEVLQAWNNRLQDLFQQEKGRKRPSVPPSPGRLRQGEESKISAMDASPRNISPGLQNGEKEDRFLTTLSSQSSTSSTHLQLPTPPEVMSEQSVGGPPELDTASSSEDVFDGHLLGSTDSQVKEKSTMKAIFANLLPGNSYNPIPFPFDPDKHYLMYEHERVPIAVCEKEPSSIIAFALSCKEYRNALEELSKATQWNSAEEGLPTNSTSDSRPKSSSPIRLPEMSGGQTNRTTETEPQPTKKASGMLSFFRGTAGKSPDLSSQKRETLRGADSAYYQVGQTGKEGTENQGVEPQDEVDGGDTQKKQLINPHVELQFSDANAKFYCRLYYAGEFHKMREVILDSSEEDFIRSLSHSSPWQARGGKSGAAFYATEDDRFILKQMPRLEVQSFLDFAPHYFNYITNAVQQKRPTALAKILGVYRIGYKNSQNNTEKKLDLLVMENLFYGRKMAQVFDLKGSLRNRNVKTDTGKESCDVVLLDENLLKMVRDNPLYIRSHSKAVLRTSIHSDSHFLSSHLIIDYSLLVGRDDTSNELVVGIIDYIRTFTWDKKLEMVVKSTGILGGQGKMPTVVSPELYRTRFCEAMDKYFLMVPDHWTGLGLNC
# JNK2 [8] = molecular target: T1, JNK2; experiment: Mass labeling of recombinant JNK2 protein; type: binding; details: room temperature, 60 min incubation; trypsin digest, CE-MS/MS
# Target sequence in this assay (P45984 4-364): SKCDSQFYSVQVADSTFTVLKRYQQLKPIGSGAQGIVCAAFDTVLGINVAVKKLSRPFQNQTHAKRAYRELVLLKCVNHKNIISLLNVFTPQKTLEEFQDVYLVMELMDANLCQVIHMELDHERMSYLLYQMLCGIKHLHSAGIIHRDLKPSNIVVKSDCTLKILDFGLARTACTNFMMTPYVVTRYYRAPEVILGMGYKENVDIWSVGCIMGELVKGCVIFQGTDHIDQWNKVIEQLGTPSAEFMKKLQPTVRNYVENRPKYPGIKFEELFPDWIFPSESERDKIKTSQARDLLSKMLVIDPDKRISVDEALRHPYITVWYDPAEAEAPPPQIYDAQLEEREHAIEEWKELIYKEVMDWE
# JNK1 = JNK1 (Homo sapiens, UniProt P45983); experiment: JNK1 NanoBRET target engagement assay; type: cell-based; details: HEK293T cells; compared with JNK-IN-8
# Chain of JNK1 (P45983 whole entry): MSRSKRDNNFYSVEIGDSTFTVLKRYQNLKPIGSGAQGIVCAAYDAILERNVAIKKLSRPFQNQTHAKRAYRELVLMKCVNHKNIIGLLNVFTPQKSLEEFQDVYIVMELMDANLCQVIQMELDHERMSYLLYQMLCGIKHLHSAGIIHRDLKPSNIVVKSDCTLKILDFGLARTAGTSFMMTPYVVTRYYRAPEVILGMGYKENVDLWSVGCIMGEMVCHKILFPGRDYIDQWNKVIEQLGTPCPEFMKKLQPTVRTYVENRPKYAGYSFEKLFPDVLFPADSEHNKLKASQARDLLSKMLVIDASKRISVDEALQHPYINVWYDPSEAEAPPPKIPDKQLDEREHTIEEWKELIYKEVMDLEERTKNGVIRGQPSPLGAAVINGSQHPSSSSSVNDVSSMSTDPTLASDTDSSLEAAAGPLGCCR
# [9] = system: HAP1 parental cells and JNK2-knockout cell lines; experiment: Antiproliferative activity in HAP1 parental and JNK2-knockout cells; type: cell-based
smiles,measurement,setting,value
O[C@H]1CC[C@H](Nc2ncc3nc(Nc4c(F)cc(F)cc4F)n([C@H]4CCOC4)c3n2)CC1 [CC930],protection from YL5084-mediated cell killing,"MM.1S cells [1]; 10 μM pretreatment, MM.1S cells",did not protect
same,"antiproliferative activity / toxicity, single agent",MM.1S cells [1],did not exhibit antiproliferative activity even at micromolar concentrations
Cc1cc(NC(=O)c2cccc(NC(=O)/C=C/CN(C)C)c2)ccc1Nc1nccc(-c2cccnc2)n1 [JNK-IN-8],induction of apoptosis,MM.1S cells [2],failed to induce apoptotic cell death to the same level
same,antiproliferative effect in ANBL6 cells,[3],minimal effect
same,engagement of JNK1 and JNK2 in pull down,JNK2 [4],engaged both JNK1 and JNK2 at the same concentration
same,potency JNK2 versus JNK1 in kinetic assay,JNK2 [5],almost equipotent against both
CN(C)C/C=C/C(=O)Nc1ccc(C(=O)Nc2cccc(Nc3nccc(-c4c(-c5ccccc5)nn5ccccc45)n3)c2)cc1 [THZ-3–60-1],selectivity JNK2 versus JNK1,JNK2 [6],exhibited selectivity for JNK2 versus JNK1
same,kinome-wide selectivity,[7],poor kinome-wide selectivity
O=c1ncn2nc(Sc3ccc(F)cc3F)ccc2c1-c1c(Cl)cccc1Cl [VX745],"antiproliferative activity / toxicity, single agent",MM.1S cells [1],not toxic
"CN(C)C/C=C/C(=O)Nc1ccc(C(=O)N2CC[C@H](Nc3nccc(-c4c(-c5ccccc5)nn5ccccc45)n3)C2)cc1 [YL2056, (S,E)-4-(Dimethylamino)-N-[4-(3-{[4-(2-phenylpyrazolo[1,5-a]pyridin-3-yl)pyrimidin-2-yl]amino}pyrrolidine-1-carbonyl)phenyl]but-2-enamide]",vacuole formation,"MDA-MB-231 cells; MDA-MB-231, phenotype of PIKFYVE inhibition",induced
same,PIKFYVE binding in NanoBRET,PIKFYVE,binds to PIKFYVE more strongly than its reversible counterpart
same,covalent modification site on JNK2,JNK2 [8],exclusive modification on JNK2 Cys116
"C[C@H]1CN(C(=O)c2ccc(NC(=O)/C=C/CN(C)C)cc2)C[C@H]1Nc1nccc(-c2c(-c3ccccc3)nn3ccccc23)n1 [YL5084, (E)-4-(Dimethylamino)-N-[4-((3S,4S)-3-methyl-4-{[4-(2-phenylpyrazolo[1,5-a]pyridin-3-yl)pyrimidin-2-yl]amino}pyrrolidine-1-carbonyl)phenyl]but-2-enamide]",JNK1 engagement in NanoBRET,JNK1,significantly less engagement of JNK1
same,induction of apoptosis,MM.1S cells [2],induced apoptosis
same,GR50 (antiproliferative),"MM.1S cells [1]; multiple myeloma (MM) cell lines, 72 h",200 to 300 nM
same,"antiproliferative activity, parental vs JNK2-knockout",[9],equipotent antiproliferative activity
same,vacuole formation,MDA-MB-231 cells; up to a concentration of 4 μM,did not induce vacuole formation
"C[C@H]1CN(C(=O)c2ccc(NC(=O)CCCN(C)C)cc2)C[C@H]1Nc1nccc(-c2c(-c3ccccc3)nn3ccccc23)n1 [YL5084R, 4-(Dimethylamino)-N-[4-((3S,4S)-3-methyl-4-{[4-(2-phenylpyrazolo[1,5-a]pyridin-3-yl)pyrimidin-2-yl]amino}pyrrolidine-1-carbonyl)phenyl]butanamide]",fold weaker antiproliferative activity than YL5084,"MM.1S cells [1]; multiple myeloma (MM) cell lines, GR50",15 fold

# Reference: paper PMC11190964 (Journal of medicinal chemistry, 2023)
